Measurements published in patent publication US20250339531A1, “DUX4 POLYPEPTIDES AND NUCLEIC ACIDS FOR TREATING INFLAMMATORY AND AUTOIMMUNE CONDITIONS” (Fred Hutchinson Cancer Center, priority 2021, published 2025).
“Also recorded” adds a separate entry of the source.

Legend:
Type in all cases: cell-based, human
[1] = system: interferon-stimulated genes IFIH1, ISG20, CXCL9, and CD74; assay: IFNG induction of interferon-stimulated genes, RT-qPCR in MB135 cells with doxycycline-inducible transgenes; conditions: for suppression of IFNG induction of ISGs (IFIH1, ISG20, CXCL9, CD74): MB135 cells, doxycycline-induced transgene, continuous protocol, IFNG 16 h
Description: (§1) All myoblast experiments were conducted in immortalized MB135 or MB200 myoblast cell lines (isolated from a control or FSHD2 subject, respectively cultured in Ham's F-10 Nutrient Mix (Gibco) supplemented with 15% fetal bovine serum (Hyclone), 100 U/100 μg/ml penicillin/streptomycin (Gibco), 1 μM dexamethasone (Sigma), and 10 ng/ml recombinant human basic fibroblast growth factor (PeproTech). To differentiate the myoblasts to myotubes, media was changed to DMEM supplemented with 10 μg/ml insulin (Sigma) and 10 μg/ml transferrin (Sigma). Cell lines containing doxycycline-inducible transgenes were additionally cultured with 2 μg/mL puromycin (Sigma). Transgenes were induced with 1 μg/mL of doxycycline (Sigma) for 4 hours prior to other treatments for a total of 20 hrs. The Kitra-SRS cells (RRID:CVCL_YI69) were provided by Dr. H. Otani and Osaka University (Nakai et al., 2019) and were cultured in DMEM supplemented with 10% fetal bovine serum (Hyclone) and 100 U/100 μg/ml penicillin/streptomycin (Gibco). Biological replicates consisted of independent but parallel experiments, such as simultaneously stimulating three cell culture plates with IFNγ. Technical replicates consisted of repeat measurements of the same biological sample, such as loading the same biological sample in triplicate for analysis by RT-qPCR.
(§2) Myoblasts were transfected with either (final concentrations) 10 μM 2′,3′-cGAMP (Sigma Aldrich), 2 μg/mL poly(I:C) (Invitrogen), or 1 μg/mL 3′ppp-dsRNA RIG-I ligand (Dan Stetson Lab, UW) using Lipofectamine 2000 according to manufacturer's protocol, or were stimulated with 1000U IFNβ (PeproTech) or 200 ng/ml IFNγ (R+D Systems) by addition directly to cell culture medium. After 16 hours of immune stimulation, RNA was collected from cells using the NucleoSpin RNA Kit (Macherey-Nagel) according to manufacturer's instructions. RNA samples were quantified by nanodrop and 1 μg of RNA per sample was treated with DNase I Amplification Grade (Thermo Fisher), and then synthesized into cDNA using the Superscript IV First-Strand Synthesis System, including oligo dT primers (Invitrogen). qPCR was run in 384-well plates on an Applied Biosystems QuantStudio 6 Flex Real-Time PCR System (ABI) and analyzed in Microsoft Excel.

ISG induction by IFNG = assay: RNA-seq of IFNG-induced genes in MB135 cells; conditions: doxycycline + IFNG; for IFNG-induced genes whose induction was suppressed more than 2-fold (percent) / IFNG-induced genes whose induction was suppressed more than 4-fold (percent): genes induced by IFNG (log 2 fold-change >3)
Description: RNA was extracted as described above from untreated, doxycycline-treated, IFNγ-treated, or doxycycline- and IFNγ-treated samples. RNA was submitted to the Fred Hutchinson Cancer Research Center Genomics Core for library preparation using the TruSeq3 Stranded mRNA kit (Illumina) followed by size and quality analysis by Tapestation (Agilent). Libraries were sequenced on a NextSeq P2-100 (Illumina).
Sequencing analysis was performed using R version 4.0.3 (R Core Team, 2020). Sequencing reads were trimmed using Trimmomatic (version 0.39) (Bolger et al., 2014, Trimmomatic: a flexible trimmer for Illumina sequence data. Bioinformatics 30, 2114-2120), and aligned to the Homo sapiens GRCh38 reference genome with the Rsubread aligner (Liao et al., 2019, The R package Rsubread is easier, faster, cheaper and better for alignment and quantification of RNA sequencing reads. Nucleic Acids Res 47, e47). Gene counts were analyzed using featureCounts (v2.0.1) (Liao et al., 2019, supra) and the Gencode v35 annotation file. Normalization and differential expression analysis were done with DESeq2 (v1.26.0) (Love et al., 2014, Moderated estimation of fold change and dispersion for RNA-seq data with DESeq2. Genome Biol 15, 550).

MEL375 cells = assay: IFNG-induced MHC class I in MEL375 melanoma cells (immunoblot, FACS)
Description: Expression of DUX4-CTD fragment suppresses interferon-induced MHC Class I expression and requires intact (L)LxxL(L) motifs. Human melanoma MEL375 cells were transduced with doxycycline inducible vectors expressing the 3×Flag-nls-tagged DUX4 CTD-154-424 (iDUX4-CTD) (SEQ ID NOS: 8-9) or the similar constructs with a mutation in the first (L)LxxL(L) motif and a deletion of the second (L)LxxL(L) motif (iDUX4-mL1dL2) (SEQ ID NOS: 10-11). Cells were treated with doxycycline (1 μg/ml) for four hours followed by the addition of interferon-gamma treatment for 16 hrs (50 ng/ml).

ZSCAN4 = assay: Activation of DUX4 target gene ZSCAN4, RT-qPCR; conditions: MB135 cells ± doxycycline
Description: as §1, §2

[2] = 113 genes induced by IFNG (log 2 fold-change >3)

Substance	suppression of IFNG induction of ISGs (IFIH1, ISG20, CXCL9, CD74) [1]	suppression of IFNG induction of ISGs (IFIH1, ISG20, CXCL9, CD74) ([1]; listed as iDUX4-CA)	IFNG-induced genes whose induction was suppressed more than 2-fold (number) (ISG induction by IFNG; [2]) [genes]	IFNG-induced genes whose induction was suppressed more than 4-fold (number) (ISG induction by IFNG; [2]) [genes]	IFNG-induced genes whose induction was suppressed more than 2-fold (percent) (ISG induction by IFNG) [%]	IFNG-induced genes whose induction was suppressed more than 4-fold (percent) (ISG induction by IFNG) [%]	suppression of MHC class I proteins in MEL375 cells, pulse protocol (MEL375 cells; Mel375iDUX4)	transcriptional activation of DUX4 target gene ZSCAN4 (ZSCAN4)	transcriptional activation of DUX4 target gene ZSCAN4 (ZSCAN4; listed as iDUX4-CA)	transcriptional activation of DUX4 target gene ZSCAN4 (ZSCAN4; listed as wild-type DUX4)	suppression of RNA induction of GBP1, IDO1, CXCL10 by IFNG ([1]; MB135-iDUX4-CTD cells used for STAT1 ChIP)	suppression of IFNG induction of ISGs (IFIH1, ISG20, CXCL9, CD74) ([1]; listed as iDUX4-CTD)	MHC surface protein expression by FACS (MEL375 cells; MEL375 cells, doxycycline then IFNG)	suppression of IFNG-induced MHC class I proteins in MEL375 cells (MEL375 cells; doxycycline 1 μg/ml 4 h then IFNG 50 ng/ml 16 hrs)
DUX4: human DUX4 protein SEQ ID NO:3 expressed from doxycycline inducible codon altered transgene SEQ ID NO:2	blocks induction of ISGs IFIH1 and ISG20 by IFNG and IFNB1; also recorded: robustly blocked	suppresses IFNG induction of all for ISGs	102	76	90	67	prolonged suppression of MHC class I proteins in the MEL375 melanoma cell line	strongly induced	robust activator of its target gene ZSCAN4	Only the wild-type DUX4 shows transcriptional activation of its target gene				
longCTD: 3×FLAG tag and nls in frame with carboxyterminal 271 amino acids of DUX4 (aa154-424), SEQ ID NOS: 8-9	sufficient to block most or all ISG induction by IFNG; also recorded: suppresses three of the four IFNG-induced genes				90	52		transcriptionally silent			robustly suppressed the RNA induction by IFNG	equally suppressed activation of ISGs	decreased MHC surface protein expression	suppresses IFNG induction of MHC proteins
